Laboratory results: patent US20140205681A1, “HYDROGEN-BOND SURROGATE PEPTIDES AND PEPTIDOMIMETICS FOR p53 REACTIVATION” (New York University, priority 2013, published 2014)
Ends that are not written are not given here. * marks the point of attachment. A∗ = N-allylalanine, C=CCN[C@@H](C)C(=O)*; code X = not defined here

What was measured:
[1] = test system: IMR90 (human normal fibroblasts); experiment: Cell proliferation (MTT); assay type: cell-based; settings: for effect on efficacy of cis-platinum on proliferation: IMR90 fibroblasts, 10 μM with cis-platinum 10 μM; for cell proliferation, single-agent: human normal IMR90 fibroblasts, 10 μM
Experimental: (§1) Cell proliferation was assessed using the MTT reagent (Roche Molecular Biochemicals, Nutley, N.J.) to detect metabolic active cells. Absorbance was measured at 570 nm in the Spectra Max 190 ELISA reader (Molecular Devices, Sunnyvale, Calif.) after overnight incubation. For clonogenic survival, 200 cells per well were plated in complete growth media and allowed to grow until visible colonies were formed (14 days). Cell colonies were fixed with cold methanol, stained with 0.25% crystal violet in 25% methanol, washed, and air dried. For apoptosis, cells were harvested, washed with cold PBS, and co-stained with Annexin V and propidium iodide according to the manufacturer's protocol (ApoAlert Annexin V-FITC Apoptosis Kit; Clontech). Apoptotic cells were analyzed using BD FACS Calibur (BD Biosciences Corporation, Franklin Lakes, N.J.) at The Ohio State University Comprehensive Cancer Center Analytical Cytometry Core.

UMSCC47 cells [2] = experiment: Tumorsphere formation; assay type: cell-based, human; settings: UMSCC47 cells, 10 μM, 7 days, vs vehicle
Experimental: Cells were harvested and seeded in a serum-free defined medium consisting of KSF medium supplemented with epidermal growth factor, basic fibroblast growth factor, insulin, and hydrocortisone in low-attachment plates (Corning Incorporated, Corning, N.Y.) for tumorspheres. Tumorsphere formation efficiency was calculated as the number of tumorspheres ([…] in diameter) formed in 7 days divided by the original number of cells seeded. Tumorsphere diameter was measured using NIS-Elements software.

p53 [3] = experiment: p53 transcriptional activity (Cignal p53 Firefly/Renilla luciferase reporter); assay type: cell-based, human; settings: 24 hours; for p53 activity, increase: HPV-positive UMSCC47 cells, vs vehicle; for p53 activity, increase / p53 activity: 10 μM; for p53 activity: UMSCC74A (HPV-negative, p53 wildtype)
Experimental: Cells were transfected with 100 ng of Cignal p53 reporter (SABiosciences, Valencia, Calif.) using Lipofectamine 2000. Cignal p53 reporter contains tandem repeats of the p53 consensus transcriptional response element. After 48 hours, cells were washed with cold PBS, lysed in passive lysis buffer (Promega), and measured for Firefly/Renilla dual luciferase activities in a luminometer using the Dual-Light System (Applied Biosystems, Foster City, Calif.). […] to control for transfection efficiency. A modification to the protocol was used for compound treatment. UMSCC47 cells were transfected with 100 ng of Cignal p53 reporter. After 24 hours, cells were treated with vehicle, CH1iB (10 μM), cis-platinum (10 μM), or combination of CH1iB (10 μM) and cis-platinum (10 μM) and measured for Firefly/Renilla dual luciferase activities 24 hours post-treatment.

HPV16 E6-p300 = molecular target: T1, HPV16 E6-p300 (Homo sapiens, UniProt Q09472); experiment: Immunoprecipitation of HPV16 E6-p300 association; assay type: cell-based; settings: UMSCC47 cells, 10 μM, 24 hours
T1 construct: Cell lysates were extracted, immunoprecipitated with anti-p300 antibody, and immunoblotted with anti-E6 antibody; endogenous in cells; host or cells: UMSCC47 (HPV16-positive HNSCC)
T1 sequence (Q09472 whole entry): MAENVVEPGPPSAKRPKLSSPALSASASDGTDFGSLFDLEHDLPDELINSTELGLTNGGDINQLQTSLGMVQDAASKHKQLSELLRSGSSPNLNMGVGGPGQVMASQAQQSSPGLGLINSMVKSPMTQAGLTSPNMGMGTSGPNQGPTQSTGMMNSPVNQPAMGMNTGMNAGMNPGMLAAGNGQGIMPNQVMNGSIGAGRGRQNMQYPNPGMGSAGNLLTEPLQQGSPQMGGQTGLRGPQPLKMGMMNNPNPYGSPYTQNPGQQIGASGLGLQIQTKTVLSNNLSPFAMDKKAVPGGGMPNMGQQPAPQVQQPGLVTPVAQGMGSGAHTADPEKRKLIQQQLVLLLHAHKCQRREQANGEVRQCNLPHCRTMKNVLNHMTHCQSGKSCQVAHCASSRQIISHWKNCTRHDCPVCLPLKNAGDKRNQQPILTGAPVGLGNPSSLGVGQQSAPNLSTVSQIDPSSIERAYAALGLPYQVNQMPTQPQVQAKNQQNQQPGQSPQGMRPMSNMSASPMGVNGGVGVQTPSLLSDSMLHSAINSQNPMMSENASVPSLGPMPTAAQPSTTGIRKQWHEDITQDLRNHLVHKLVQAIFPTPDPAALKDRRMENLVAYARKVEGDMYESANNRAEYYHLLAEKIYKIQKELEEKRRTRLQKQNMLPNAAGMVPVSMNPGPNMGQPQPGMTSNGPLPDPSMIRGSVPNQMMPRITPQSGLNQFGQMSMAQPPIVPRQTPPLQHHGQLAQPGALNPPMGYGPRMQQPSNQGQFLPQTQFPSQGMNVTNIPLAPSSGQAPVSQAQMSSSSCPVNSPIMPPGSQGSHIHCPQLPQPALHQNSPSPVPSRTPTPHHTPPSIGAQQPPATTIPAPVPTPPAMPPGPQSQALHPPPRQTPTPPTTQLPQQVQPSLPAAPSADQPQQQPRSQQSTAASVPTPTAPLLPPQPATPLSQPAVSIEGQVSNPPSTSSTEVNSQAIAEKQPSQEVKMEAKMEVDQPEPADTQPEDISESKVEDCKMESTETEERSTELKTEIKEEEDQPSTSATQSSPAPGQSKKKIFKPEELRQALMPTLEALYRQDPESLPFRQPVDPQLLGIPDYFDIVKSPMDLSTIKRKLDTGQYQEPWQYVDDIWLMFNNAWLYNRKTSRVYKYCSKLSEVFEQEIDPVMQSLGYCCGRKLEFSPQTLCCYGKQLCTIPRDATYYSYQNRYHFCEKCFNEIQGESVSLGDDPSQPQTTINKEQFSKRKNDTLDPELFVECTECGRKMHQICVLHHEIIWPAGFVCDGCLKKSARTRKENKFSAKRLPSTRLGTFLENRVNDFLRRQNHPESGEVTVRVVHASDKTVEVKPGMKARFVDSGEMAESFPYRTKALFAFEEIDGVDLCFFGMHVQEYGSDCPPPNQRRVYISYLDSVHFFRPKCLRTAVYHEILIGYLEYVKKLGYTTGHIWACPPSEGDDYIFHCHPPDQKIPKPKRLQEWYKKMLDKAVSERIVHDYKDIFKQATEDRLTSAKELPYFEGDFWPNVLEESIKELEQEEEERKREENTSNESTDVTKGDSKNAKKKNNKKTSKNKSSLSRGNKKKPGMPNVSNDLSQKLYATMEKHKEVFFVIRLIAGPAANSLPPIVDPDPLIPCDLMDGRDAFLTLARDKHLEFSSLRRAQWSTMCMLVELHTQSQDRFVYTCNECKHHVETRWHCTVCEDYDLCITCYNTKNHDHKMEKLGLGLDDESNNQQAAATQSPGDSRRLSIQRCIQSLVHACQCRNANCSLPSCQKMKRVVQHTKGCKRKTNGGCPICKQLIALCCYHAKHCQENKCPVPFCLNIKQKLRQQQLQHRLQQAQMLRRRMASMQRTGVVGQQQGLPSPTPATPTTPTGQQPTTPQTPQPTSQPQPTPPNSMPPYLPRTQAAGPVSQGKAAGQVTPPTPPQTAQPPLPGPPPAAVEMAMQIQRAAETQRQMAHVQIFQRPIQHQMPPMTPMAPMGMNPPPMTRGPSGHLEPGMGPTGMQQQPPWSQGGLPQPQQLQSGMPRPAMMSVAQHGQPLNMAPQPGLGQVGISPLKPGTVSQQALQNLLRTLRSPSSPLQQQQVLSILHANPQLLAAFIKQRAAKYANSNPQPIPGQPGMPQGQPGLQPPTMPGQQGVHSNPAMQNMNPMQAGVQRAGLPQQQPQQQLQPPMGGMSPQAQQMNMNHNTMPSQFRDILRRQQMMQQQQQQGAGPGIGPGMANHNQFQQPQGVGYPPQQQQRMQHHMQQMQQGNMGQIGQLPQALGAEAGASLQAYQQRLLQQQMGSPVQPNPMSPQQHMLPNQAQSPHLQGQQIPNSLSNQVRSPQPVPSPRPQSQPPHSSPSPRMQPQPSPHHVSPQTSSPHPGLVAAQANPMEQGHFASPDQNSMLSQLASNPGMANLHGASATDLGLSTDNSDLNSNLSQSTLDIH
Experimental: Cells were lysed with NP buffer [50 mM Tris (pH 8.0), 150 mM NaCl, 0.5% deoxycholate, 0.1% SDS, and 1.0% NP-40] containing 1× Protease Inhibitor Cocktail (Roche, Switzerland) at 4° C. with gentle rocking for 15 min. The supernatant was pre-cleared to block nonspecific binding with 50 μL protein A/G Agarose beads (Pierce Biotechnology) that had been pre-washed with NP buffer before use. Equal amounts of anti-E6 antibody (Abcam), anti-p300 antibody (Millipore), or IgG antibody (Cell Signaling) were added to the respective samples. After 4 hours incubation at 4° C., 50 μL pre-washed protein A/G-agarose beads were added to each tube and immunoprecipitation was performed by rocking overnight at 4° C. The immunoprecipitated complexes were washed with NP buffer and then eluted using 2×SDS sample buffer. Eluted sample and 10% of input were resolved by SDS-PAGE for Western blot analysis with anti-E6, anti-p300, or anti-V5 antibodies.

UMSCC74A cells = experiment: Cell proliferation (MTT); assay type: cell-based, human; settings: for cell proliferation, single-agent: HPV-negative UMSCC74A cells, 10 μM; for effect on efficacy of cis-platinum on proliferation: UMSCC74A cells, 10 μM with cis-platinum 10 μM
Experimental: as §1

UMSCC47 cells [4] = experiment: Cell proliferation (MTT); assay type: cell-based, human; settings: UMSCC47 cells; for cell proliferation, single-agent: 10 μM, 24-72 hours
Experimental: as §1

UMSCC47 cells [5] = experiment: Clonogenic survival (crystal violet); assay type: cell-based, human; settings: UMSCC47 cells, 10 μM each agent, 14 days, vs vehicle
Experimental: as §1

UMSCC47 cells [6] = experiment: Apoptosis (Annexin V FACS); assay type: cell-based, human; settings: 10 μM, 24 hours, vs vehicle
Experimental: as §1

[7] = test system: p300, p53, p21, miR-34a, miR-200c; experiment: Quantitative real-time PCR of p300, p53, p21, miR-34a and miR-200c expression; assay type: cell-based, human; settings: 10 μM, 24 hours; for expression of p300, p53, and p53-regulated genes: UMSCC74A
Experimental: Cells were extracted for total RNA using the TRIzol® reagent (Invitrogen) or TaqMan PreAmp Cells-to-CT kit (Applied Biosystems). Expression of p300, p53, p21, miR-34a and miR-200c were determined using the Applied Biosystems 7900HT Fast Real-Time PCR System with validated TaqMan gene expression assays (Applied Biosystems). p53, p300, and p21 expression were normalized to GADPH and miR-34a and miR-200c expression were normalized to RNU44 using the ΔΔCt method.

p53 [8] = experiment: Western blot of total and acetylated[K382] p53 levels; assay type: cell-based, human; settings: 24 hours; for acetylated p53 levels / p53 accumulation / p53 levels: 10 μM; for p53 levels: UMSCC74A
Experimental: Whole cell lysates were mixed with Laemmli loading buffer, boiled, separated by SDS-PAGE, and transferred to a nitrocellulose membrane. Subsequently, immunoblot analyses were performed using antibodies specific to V5 (Invitrogen), p53 (sc-126, Santa Cruz Biotechnology, Santa Cruz, Calif.), or acetylated[[…]]-p53 (2525, Cell Signaling Technology). The signal was developed using the SuperSignal Western Blotting Kit (Pierce, Rockford, Ill.).

CH1 domain of p300 = CH1 domain of p300 (Homo sapiens, UniProt Q09472); settings: competes with endogenous HIF-1α for p300; Henchey et al. 2010; cited from earlier work
Chain of CH1 domain of p300 (Q09472 whole entry, the tested form may be a part): as the sequence (Q09472 whole entry) above

[9] = UMSCC47 cells, 10 μM with cis-platinum 10 μM

| Substance | effect on efficacy of cis-platinum on proliferation [1] | cell proliferation, single-agent [1] | tumorsphere formation, reduced by (UMSCC47 cells [2]) | p53 activity, increase (p53 [3]) | effect of cis-platinum on p53 activity (p53 [3]; [9]) | p53 activity (p53 [3]) | association between E6 and p300 (HPV16 E6-p300) | cell proliferation, single-agent (UMSCC74A cells) | effect on efficacy of cis-platinum on proliferation (UMSCC74A cells) | effect on anti-proliferative efficacy of cis-platinum (UMSCC47 cells [4]; 10 μM with cis-platinum 10 μM) | cell proliferation, single-agent (UMSCC47 cells [4]) | clonogenic survival, reduction/inhibition (UMSCC47 cells [5]) | apoptosis, enhanced by (UMSCC47 cells [6]) | p21, miR-34a, and miR-200c expression ([7]; UMSCC47 cells) | expression of p300, p53, and p53-regulated genes [7] | effect of cis-platinum on p53 accumulation and acetylation (p53 [8]; [9]) | acetylated p53 levels (p53 [8]; UMSCC47 cells) | p53 accumulation (p53 [8]; UMSCC47 cells) | p53 levels (p53 [8]) | HIF-1α-mediated transcription of vascular endothelial growth factor (CH1 domain of p300) |
| --- | --- | --- | --- | --- | --- | --- | --- | --- | --- | --- | --- | --- | --- | --- | --- | --- | --- | --- | --- | --- |
| XELA*RALDQ-NH2 [CH1iB] | did not augment | no effect | 20% | 71% | potentiated | did not modulate | reduced | no effect | did not augment | potentiated | inhibited the proliferation | 35% | 353% | modest but significant increase | unchanged | potentiated | enhanced | enhanced | did not modulate | – |
| XTAA*DCEYNAR ({code X-Thr-Ala-A∗}-DCEYNAR; staple (positions not given here); reading uncertain; also: HBS: 4-pentenoic acid, N-allylalanine, printed as XTAA*DCEYNAR) [CH1iA, hydrogen bond surrogate stabilized α-helical mimic of HIF-1α targeting site A of p300 CH1; X = 4-pentenoic acid, A* = N-allylalanine, reference compound] | did not augment | no effect | – | no effect | – | did not modulate | – | no effect | did not augment | – | inactive | – | – | – | unchanged | – | no effect | no effect | did not modulate | reduction |
